Reference: patent publication US12527849B2, “Apparatus for determining administration form of a composition of an engineered virus-based nanoparticle for a treatment of an autoimmune condition” (Diamante Srl, priority 2021, dated 2026)

Tested on: TNF-α
Assay: Pro-inflammatory cytokines in sera of CIA Collagen mice (ELISA, day 58): TNF-α
Assay type: in vivo
Details: Dexamethasone oral 1 mg/kg, 20 times between day 28 and 57
Description: Critical administration 124 disclosed herein is further described below. Q5D represents administration 5 days a part. TBSV·pLIp1 and wt TBSV shown in Table 1 may include liquid form that are not sterile and stored in −20° C. TBSV·pLIp1 may be given at the dose of 50 μG/100 μL Male DBA/1J mice (8 weeks; Envigo, Italy) may be used for these studies. Mice may be housed in individual cages (two for each group) and maintained under a 12:12 light-dark cycle at 21° C.±1° C. and 50%±5% humidity. The animals may be acclimated to their environment for 1 week and had ad libitum access to tap water and standard rodent diet. All animal experiments may be complied with regulations in Italy (D.M. 116192), Europe (O.J of E.C. L 358/112/18/1986), and the United States (Animal Welfare Assurance Number A5594-01, Department of Health and Human Services, USA). […] Arthritis was assessed by using qualitative severity score system and hind paw volume (mL) measured by a plethysmometer on day 20, 22, 24, 26, 28, 30, 32, 34, 36, 38, 40, 42, 44, 46 48, 50, 52, 54, 56 and 58. Body weight was recorded on day 0, 6, 13, 16, 18, 20, 22, 24, 26, 28, 30, 32, 34, 36, 38, 40, 42, 44, 46, 50, 52, 54, 56 and 58. […]

C[C@@H]1C[C@H]2[C@@H]3CCC4=CC(=O)C=C[C@]4(C)[C@@]3(F)[C@@H](O)C[C@]2(C)[C@@]1(O)C(=O)CO [Dexamethasone, dexamethasone]
TNF-α, % of reduction vs CIA Collagen: 12.02%
